Test results reported in PubChem BioAssay (NCI).
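Five concentrations, 48 hours, 96-well plates. GI50 is the concentration that inhibits growth by half. TGI marks complete inhibition of growth.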

Columns and labels:
Assay in all cases: NCI anticancer screen, dose series, 48 h
[1] = system: A498 renal
[2] = system: M14 melanoma
[3] = system: OVCAR-3 ovarian
[4] = system: PC-3 prostate
[5] = system: RXF 393 renal
[6] = system: SNB-75 CNS
[7] = system: MDA-MB-231 breast
[8] = system: SN12C renal
[9] = system: BT-549 breast
[10] = system: 786-0 renal
[11] = system: CAKI-1 renal
[12] = system: SK-MEL-5 melanoma
[13] = system: HL-60(TB) leukemia
[14] = system: HS 578T breast
[15] = system: UACC-62 melanoma
[16] = system: K-562 leukemia
[17] = system: OVCAR-4 ovarian
[18] = system: T-47D breast
[19] = system: NCI-H23 lung
[20] = system: COLO 205 colon
[21] = system: NCI-H460 lung
[22] = system: U251 CNS
[23] = system: NCI/ADR-RES ovarian
[24] = system: MDA-MB-435
[25] = system: LOX IMVI melanoma
[26] = system: NCI-H226 lung
[27] = system: SW-620 colon
[28] = system: HCT-15 colon
[29] = system: DU-145 prostate
[30] = system: MCF7 breast
[31] = system: ACHN renal
[32] = system: KM12 colon
[33] = system: MOLT-4 leukemia
[34] = system: TK-10 renal
[35] = system: MALME-3M melanoma
[36] = system: UO-31 renal
[37] = system: OVCAR-5 ovarian
[38] = system: SK-OV-3 ovarian
[39] = system: IGROV1 ovarian
[40] = system: HOP-92 NSCLC
[41] = system: HT29 colon
[42] = system: NCI-H522 lung
[43] = system: SK-MEL-2 melanoma
[44] = system: SK-MEL-28 melanoma
[45] = system: SF-268 CNS
[46] = system: SNB-19 CNS
[47] = system: SF-295 CNS

Structure (SMILES): CCOC(=O)c1cc(NC(=O)c2cc(NC(=O)c3cc(NC(=O)c4c(-c5ccccc5)noc4C)cn3C)cn2C)cn1C
- GI50 [1]: > 100 µM
- TGI [1]: > 100 µM
- GI50 [2]: 47.1 µM
- TGI [2]: > 100 µM
- GI50 [3]: 47.9 µM
- TGI [3]: > 100 µM
- GI50 [4]: 19.2 µM
- TGI [4]: > 100 µM
- GI50 [5]: > 100 µM
- TGI [5]: > 100 µM
- GI50 [6]: > 100 µM
- TGI [6]: > 100 µM
- GI50 [7]: 35 µM
- TGI [7]: > 100 µM
- GI50 [8]: 73.4 µM
- TGI [8]: > 100 µM
- GI50 [9]: 4.37 µM
- TGI [9]: 59.5 µM
- GI50 [10]: > 100 µM
- TGI [10]: > 100 µM
- GI50 [11]: > 100 µM
- TGI [11]: > 100 µM
- GI50 [12]: > 100 µM
- TGI [12]: > 100 µM
- GI50 [13]: 10.6 µM
- TGI [13]: > 100 µM
- GI50 [14]: > 100 µM
- TGI [14]: > 100 µM
- GI50 [15]: 44.4 µM
- TGI [15]: > 100 µM
- GI50 [16]: 9.3 µM
- TGI [16]: > 100 µM
- GI50 [17]: > 100 µM
- TGI [17]: > 100 µM
- GI50 [18]: > 100 µM
- TGI [18]: > 100 µM
- GI50 [19]: > 100 µM
- TGI [19]: > 100 µM
- GI50 [20]: > 100 µM
- TGI [20]: > 100 µM
- GI50 [21]: > 100 µM
- TGI [21]: > 100 µM
- GI50 [22]: > 100 µM
- TGI [22]: > 100 µM
- GI50 [23]: > 100 µM
- TGI [23]: > 100 µM
- GI50 [24]: > 100 µM
- TGI [24]: > 100 µM
- GI50 [25]: > 100 µM
- TGI [25]: > 100 µM
- GI50 [26]: 60.3 µM
- TGI [26]: > 100 µM
- GI50 [27]: > 100 µM
- TGI [27]: > 100 µM
- GI50 [28]: > 100 µM
- TGI [28]: > 100 µM
- GI50 [29]: 16.9 µM
- TGI [29]: > 100 µM
- GI50 [30]: > 100 µM
- TGI [30]: > 100 µM
- GI50 [31]: > 100 µM
- TGI [31]: > 100 µM
- GI50 [32]: > 100 µM
- TGI [32]: > 100 µM
- GI50 [33]: 8.97 µM
- TGI [33]: > 100 µM
- GI50 [34]: > 100 µM
- TGI [34]: > 100 µM
- GI50 [35]: 91.2 µM
- TGI [35]: > 100 µM
- GI50 [36]: > 100 µM
- TGI [36]: > 100 µM
- GI50 [37]: > 100 µM
- TGI [37]: > 100 µM
- GI50 [38]: > 100 µM
- TGI [38]: > 100 µM
- GI50 [39]: > 100 µM
- TGI [39]: > 100 µM
- GI50 [40]: 0.241 µM
- TGI [40]: 4.36 µM
- GI50 [41]: > 100 µM
- TGI [41]: > 100 µM
- GI50 [42]: > 100 µM
- TGI [42]: > 100 µM
- GI50 [43]: > 100 µM
- TGI [43]: > 100 µM
- GI50 [44]: > 100 µM
- TGI [44]: > 100 µM
- GI50 [45]: > 100 µM
- TGI [45]: > 100 µM
- GI50 [46]: > 100 µM
- TGI [46]: > 100 µM
- GI50 [47]: > 100 µM
- TGI [47]: > 100 µM
